Measured values taken from ChEMBL document CHEMBL5725720, “Pyrazolopyridines and pyrazolopyrimidines” (2016).

Experiments:
[1] = target: Tyrosine-protein kinase JAK1 (Homo sapiens, UniProt P23458); assay: (§1) JAK Caliper Enzyme Assay at 1 mM ATP: Test article was solubilized in dimethyl sulfoxide (DMSO) to a stock concentration of 30 mM. An 11-point half log dilution series was created in DMSO with a top concentration of 600 μM. […] The compound plates were diluted 1 to 60 resulting in a top final assay compound concentration of 10 μM and a 2% DMSO concentration.Test article and assay controls were added to a 384-well plate. Reaction mixtures contained 20 mM HEPES, pH 7.4, 10 mM magnesium chloride, 0.01% bovine serum albumin (BSA), 0.0005% Tween 20, 1 mM ATP and 1 μM peptide substrate. The JAK1 and TYK2 assays contained 1 μM of the IRStide peptide (5FAM-[…]) and the JAK2 and JAK3 assays contained 1 μM of the JAKtide peptide (FITC-[…]). […] Enzyme concentrations and incubation times were optimized for each new enzyme preps and were modified slightly over time to ensure 20%-30% phosphorylation. The assays were stopped with a final concentration of 10 mM EDTA, 0.1% Coating Reagent and 100 mM HEPES, pH=7.4. The assay plates were placed on a Caliper Life Science Lab Chip 3000 (LC3000) instrument, and each well was sampled using appropriate separation conditions to measure the unphosphorylated and phosphorylated peptide.
Sequence of Tyrosine-protein kinase JAK1 (P23458 whole entry): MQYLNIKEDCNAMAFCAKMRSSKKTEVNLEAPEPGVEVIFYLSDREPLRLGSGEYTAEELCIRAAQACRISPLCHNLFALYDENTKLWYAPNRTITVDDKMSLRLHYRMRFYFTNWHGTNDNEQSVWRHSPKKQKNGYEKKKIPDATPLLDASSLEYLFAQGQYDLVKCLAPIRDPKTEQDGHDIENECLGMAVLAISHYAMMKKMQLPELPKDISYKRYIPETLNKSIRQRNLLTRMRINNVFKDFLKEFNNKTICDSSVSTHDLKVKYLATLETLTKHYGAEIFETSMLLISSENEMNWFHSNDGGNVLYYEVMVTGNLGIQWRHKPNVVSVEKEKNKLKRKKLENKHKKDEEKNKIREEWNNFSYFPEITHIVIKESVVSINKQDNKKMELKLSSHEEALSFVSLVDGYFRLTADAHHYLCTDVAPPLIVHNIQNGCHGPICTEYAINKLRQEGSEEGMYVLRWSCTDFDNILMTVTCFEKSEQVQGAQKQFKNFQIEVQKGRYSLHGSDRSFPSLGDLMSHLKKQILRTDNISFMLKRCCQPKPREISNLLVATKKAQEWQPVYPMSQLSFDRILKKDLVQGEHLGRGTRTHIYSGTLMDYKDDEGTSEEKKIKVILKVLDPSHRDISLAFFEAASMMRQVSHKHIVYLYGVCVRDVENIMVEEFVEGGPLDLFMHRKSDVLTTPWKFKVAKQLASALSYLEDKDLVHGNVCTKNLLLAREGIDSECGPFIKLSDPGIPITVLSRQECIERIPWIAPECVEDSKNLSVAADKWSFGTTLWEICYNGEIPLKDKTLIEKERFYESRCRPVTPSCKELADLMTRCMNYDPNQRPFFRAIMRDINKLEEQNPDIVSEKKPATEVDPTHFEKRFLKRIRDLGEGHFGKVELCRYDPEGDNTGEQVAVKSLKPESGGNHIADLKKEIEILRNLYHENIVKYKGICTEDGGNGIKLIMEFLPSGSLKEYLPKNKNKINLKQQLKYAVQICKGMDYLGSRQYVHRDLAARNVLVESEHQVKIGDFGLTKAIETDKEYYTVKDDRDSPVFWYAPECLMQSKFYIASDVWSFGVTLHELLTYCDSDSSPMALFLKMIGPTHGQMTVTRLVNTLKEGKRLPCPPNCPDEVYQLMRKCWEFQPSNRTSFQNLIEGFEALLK

[2] = target: Non-receptor tyrosine-protein kinase TYK2 (Homo sapiens, UniProt P29597); assay: as §1
Sequence of Non-receptor tyrosine-protein kinase TYK2 (P29597 whole entry): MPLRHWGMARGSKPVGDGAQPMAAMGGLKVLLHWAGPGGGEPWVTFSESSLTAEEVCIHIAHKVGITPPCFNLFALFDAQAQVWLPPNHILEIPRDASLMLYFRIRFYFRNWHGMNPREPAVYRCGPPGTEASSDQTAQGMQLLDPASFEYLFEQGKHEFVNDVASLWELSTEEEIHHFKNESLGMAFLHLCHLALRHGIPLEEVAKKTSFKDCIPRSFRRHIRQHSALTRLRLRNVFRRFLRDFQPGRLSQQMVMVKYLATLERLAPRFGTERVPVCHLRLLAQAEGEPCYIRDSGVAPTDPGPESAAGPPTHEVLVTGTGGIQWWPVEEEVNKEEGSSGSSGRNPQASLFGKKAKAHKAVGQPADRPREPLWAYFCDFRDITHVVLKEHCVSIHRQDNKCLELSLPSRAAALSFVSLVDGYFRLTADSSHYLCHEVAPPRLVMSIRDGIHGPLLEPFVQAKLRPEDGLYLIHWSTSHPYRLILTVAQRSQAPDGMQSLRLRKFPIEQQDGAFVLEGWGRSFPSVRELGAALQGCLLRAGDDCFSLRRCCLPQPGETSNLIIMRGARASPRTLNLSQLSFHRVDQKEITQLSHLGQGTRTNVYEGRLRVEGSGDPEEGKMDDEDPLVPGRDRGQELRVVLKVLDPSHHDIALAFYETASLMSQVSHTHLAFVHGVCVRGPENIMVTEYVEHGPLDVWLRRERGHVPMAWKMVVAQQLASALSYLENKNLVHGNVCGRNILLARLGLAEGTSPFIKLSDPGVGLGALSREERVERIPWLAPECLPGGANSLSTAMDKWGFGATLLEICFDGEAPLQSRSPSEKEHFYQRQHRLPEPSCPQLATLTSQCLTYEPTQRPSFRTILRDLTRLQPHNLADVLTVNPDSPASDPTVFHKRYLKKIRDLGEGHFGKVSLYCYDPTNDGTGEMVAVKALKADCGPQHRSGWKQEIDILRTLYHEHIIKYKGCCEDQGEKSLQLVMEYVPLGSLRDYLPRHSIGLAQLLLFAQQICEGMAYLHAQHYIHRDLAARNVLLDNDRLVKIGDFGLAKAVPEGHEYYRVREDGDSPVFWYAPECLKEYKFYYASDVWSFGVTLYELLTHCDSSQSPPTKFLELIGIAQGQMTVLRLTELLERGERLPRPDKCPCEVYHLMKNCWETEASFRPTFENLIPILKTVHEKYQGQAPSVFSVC

[3] = target: T1, Tyrosine-protein kinase JAK3 (Homo sapiens, UniProt P52333); assay: as §1
T1 sequence (P52333 whole entry): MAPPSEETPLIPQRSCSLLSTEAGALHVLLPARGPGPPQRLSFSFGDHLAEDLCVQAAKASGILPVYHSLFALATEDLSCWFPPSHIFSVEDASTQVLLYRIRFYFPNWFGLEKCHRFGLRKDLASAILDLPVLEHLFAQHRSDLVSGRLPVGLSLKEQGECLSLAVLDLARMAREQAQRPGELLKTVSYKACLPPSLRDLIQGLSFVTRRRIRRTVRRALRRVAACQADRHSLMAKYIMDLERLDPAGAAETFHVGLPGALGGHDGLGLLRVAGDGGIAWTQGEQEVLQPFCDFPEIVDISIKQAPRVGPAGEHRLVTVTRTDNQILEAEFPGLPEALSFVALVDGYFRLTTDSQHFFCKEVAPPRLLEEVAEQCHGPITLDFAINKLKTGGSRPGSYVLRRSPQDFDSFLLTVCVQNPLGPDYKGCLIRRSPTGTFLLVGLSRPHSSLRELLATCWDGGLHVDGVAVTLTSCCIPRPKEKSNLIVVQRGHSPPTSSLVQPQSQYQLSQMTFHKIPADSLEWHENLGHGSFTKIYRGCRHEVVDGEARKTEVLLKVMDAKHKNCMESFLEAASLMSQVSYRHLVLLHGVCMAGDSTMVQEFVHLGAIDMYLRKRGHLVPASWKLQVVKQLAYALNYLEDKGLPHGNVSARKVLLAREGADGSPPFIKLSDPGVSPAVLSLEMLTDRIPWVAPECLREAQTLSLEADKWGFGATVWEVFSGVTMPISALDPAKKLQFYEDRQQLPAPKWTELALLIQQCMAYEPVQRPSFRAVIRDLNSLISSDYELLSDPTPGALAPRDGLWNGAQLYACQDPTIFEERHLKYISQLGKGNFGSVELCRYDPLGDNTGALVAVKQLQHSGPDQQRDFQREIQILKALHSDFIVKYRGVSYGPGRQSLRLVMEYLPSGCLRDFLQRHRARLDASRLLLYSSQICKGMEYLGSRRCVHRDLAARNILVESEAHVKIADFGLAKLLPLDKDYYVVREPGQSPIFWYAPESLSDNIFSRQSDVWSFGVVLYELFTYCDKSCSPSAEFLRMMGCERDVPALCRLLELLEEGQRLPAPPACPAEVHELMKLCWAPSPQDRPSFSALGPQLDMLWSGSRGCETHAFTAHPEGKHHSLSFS

[4] = target: Tyrosine-protein kinase JAK2 (Homo sapiens, UniProt O60674); assay: JAK Caliper Enzyme Assay at 1 mM ATP: Test article was solubilized in dimethyl sulfoxide (DMSO) to a stock concentration of 30 mM. An 11-point half log dilution series was created in DMSO with a top concentration of 600 μM. […] The compound plates were diluted 1 to 60 resulting in a top final assay compound concentration of 10 μM and a 2% DMSO concentration.Test article and assay controls were added to a 384-well plate. Reaction mixtures contained 20 mM HEPES, pH 7.4, 10 mM magnesium chloride, 0.01% bovine serum albumin (BSA), 0.0005% Tween 20, 1 mM ATP and 1 μM peptide substrate. […] Enzyme concentrations and incubation times were optimized for each new enzyme preps and were modified slightly over time to ensure 20%-30% phosphorylation. The assays were stopped with a final concentration of 10 mM EDTA, 0.1% Coating Reagent and 100 mM HEPES, pH=7.4. The assay plates were placed on a Caliper Life Science Lab Chip 3000 (LC3000) instrument, and each well was sampled using appropriate separation conditions to measure the unphosphorylated and phosphorylated peptide.
Sequence of Tyrosine-protein kinase JAK2 (O60674 whole entry): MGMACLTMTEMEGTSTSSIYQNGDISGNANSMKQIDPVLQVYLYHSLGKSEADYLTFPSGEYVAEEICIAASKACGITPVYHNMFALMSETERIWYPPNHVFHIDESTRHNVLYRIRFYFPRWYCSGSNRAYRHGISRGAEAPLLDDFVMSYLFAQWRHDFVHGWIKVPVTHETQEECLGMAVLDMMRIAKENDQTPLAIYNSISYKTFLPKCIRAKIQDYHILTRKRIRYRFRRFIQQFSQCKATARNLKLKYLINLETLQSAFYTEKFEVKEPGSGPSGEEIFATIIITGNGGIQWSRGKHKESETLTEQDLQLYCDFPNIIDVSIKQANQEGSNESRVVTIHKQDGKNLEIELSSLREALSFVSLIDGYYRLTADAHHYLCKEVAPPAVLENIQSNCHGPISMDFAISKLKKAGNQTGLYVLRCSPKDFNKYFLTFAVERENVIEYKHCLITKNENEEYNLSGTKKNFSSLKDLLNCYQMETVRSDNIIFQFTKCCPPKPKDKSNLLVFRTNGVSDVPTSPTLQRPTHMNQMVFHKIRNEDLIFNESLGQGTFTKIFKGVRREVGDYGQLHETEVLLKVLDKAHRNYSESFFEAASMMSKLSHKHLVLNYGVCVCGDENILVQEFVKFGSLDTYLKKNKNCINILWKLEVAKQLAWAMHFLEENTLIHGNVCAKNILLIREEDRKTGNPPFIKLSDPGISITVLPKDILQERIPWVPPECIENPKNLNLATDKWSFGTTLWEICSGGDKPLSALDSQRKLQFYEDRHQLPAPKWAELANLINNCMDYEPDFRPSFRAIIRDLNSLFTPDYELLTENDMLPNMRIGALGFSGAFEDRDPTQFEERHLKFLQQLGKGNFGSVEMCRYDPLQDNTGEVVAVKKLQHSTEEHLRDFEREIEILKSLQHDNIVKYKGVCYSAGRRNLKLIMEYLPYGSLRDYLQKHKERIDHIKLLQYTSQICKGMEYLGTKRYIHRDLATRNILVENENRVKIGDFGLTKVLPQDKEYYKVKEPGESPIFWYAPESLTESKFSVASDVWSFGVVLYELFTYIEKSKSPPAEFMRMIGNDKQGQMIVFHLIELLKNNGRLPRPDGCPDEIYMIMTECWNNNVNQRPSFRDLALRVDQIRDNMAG

| Compound | IC50 [1] | IC50 [2] | IC50 [3] | IC50 [4] |
| --- | --- | --- | --- | --- |
| CCc1cc(O)ccc1-c1cc2[nH]ncc2c(N2CCc3cccc(OC)c3C2)n1 |  | 478 nM | 78.1 nM | 25.1 nM |
| CCc1cc(O)ccc1-c1cc2[nH]ncc2c(N2CCc3c(Cl)cccc3C2)n1 | 39.4 nM | 561 nM | 111 nM | 46.5 nM |
| CN(c1ccc(O)cc1CNc1nc(-c2cc(F)c(O)cc2CC(F)(F)F)nc2[nH]nc(C(N)=O)c12)S(=O)(=O)c1ccccc1 |  |  |  | 123 nM |
| CCc1cc(O)ccc1-c1cc2[nH]ncc2c(N2CCc3cc(OC)c(OCc4ccccc4)cc3C2)n1 | 67.4 nM | 2730 nM | 340 nM |  |
| CSCCNc1nc(-c2cc(F)c(O)cc2CC(F)(F)F)cc2[nH]nc(-c3nc4c([nH]3)CCN(Cc3ccccc3)C4)c12 | 50 nM | 172 nM | 589 nM | 196 nM |
| CCCCN(c1ccccc1CN(C)c1nc(-c2cc(F)c(O)cc2CC)cc2[nH]ncc12)S(C)(=O)=O | 19.5 nM |  | 61.6 nM | 43.2 nM |
| CCc1cc(O)ccc1-c1cc2[nH]ncc2c(N2CCc3ccc(OC)c(OC)c3C2)n1 | 13.8 nM | 1540 nM | 194 nM | 52.4 nM |

Further compounds by falling IC50 [1], results first:

| IC50 [1] | IC50 [2] | IC50 [3] | IC50 [4] | Compound |
| --- | --- | --- | --- | --- |
| 10.7 nM | 723 nM | 42.4 nM | 26.3 nM | CCc1cc(O)ccc1-c1cc2[nH]ncc2c(N2CCc3cc(-n4cnc(C)c4)ccc3C2)n1 |
| 10.1 nM | 289 nM | 56.2 nM | 25.9 nM | CCc1cc(O)ccc1-c1cc2[nH]ncc2c(N2CCc3cc(OCCOC)ccc3C2)n1 |
| 9.7 nM | 302 nM | 40.8 nM | 16.9 nM | CCc1cc(O)ccc1-c1cc2[nH]ncc2c(N2CCc3cc(F)ccc3C2)n1 |
| 6.6 nM | 127 nM | 140 nM | 41.1 nM | CN(c1ccc(F)cc1CNc1nc(-c2cc(F)c(O)cc2CC(F)(F)F)cc2[nH]nc(C(N)=O)c12)S(C)(=O)=O |
| 3.2 nM |  |  |  | CC(=O)N1CCc2[nH]c(-c3n[nH]c4nc(-c5cc(F)c(O)cc5CC(F)(F)F)nc(NCc5cc(O)ccc5N(C)S(C)(=O)=O)c34)nc2C1 |
| 0.7 nM | 8.4 nM | 17.3 nM |  | CCc1cc(O)c(F)cc1-c1cc2[nH]ncc2c(NCc2ccccc2N(C)S(=O)(=O)CC)n1 |
